For the assay, the target named is T1, GST-Bcl-B (Homo sapiens, UniProt Q9HD36).
T1 sequence (Q9HD36 1-182 limits assumed): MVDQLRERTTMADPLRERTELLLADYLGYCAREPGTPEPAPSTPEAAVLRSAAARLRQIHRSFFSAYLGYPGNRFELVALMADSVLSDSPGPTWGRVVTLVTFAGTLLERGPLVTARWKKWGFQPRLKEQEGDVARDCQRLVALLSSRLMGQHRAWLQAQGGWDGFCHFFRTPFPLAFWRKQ
The experiment in a line: Bcl-B/FITC-TR3-r8 fluorescence polarization competition (displacement) assay, HTS and dose-response. Background: Polarisation of emitted light reports the rotation of a fluorescent probe.

Setting [1] is: Table 7, NCI Mechanistic library, Binding Assay, FP, Concentration 0.02 uM.
Setting [2] is: read-out: Result Value (Result Type % Inhibition), BCL-b/TR3.
The mark [3] stands for this setting: Table 8, NCI Structural library, Binding Assay, FP, Concentration 0.02 uM.
The mark [4] stands for this setting: read-out: Result Value (Result Type % Inhibition), BCL-b/TR3, Table 8, NCI Structural library, Binding Assay, FP, Concentration 0.02 uM.

Molecules are shown by their SMILES. Where two headings read alike, the source gives them in different places.

With `[O-][n+]1c2c([n+]([O-])c3ccccc31)-c1cccc3cccc-2c13` [Compound 60309], under setting [1], the “F Ratio” value turned out to be 1.4371 and the “Is Hit” value is reported as “Yes”. Moreover, the inhibition at 0.02 µM under setting [2] turned out to be 72.3%.
`Nc1ccc(/N=N/c2ccc(-c3ccc(O)cc3)cc2)c2ccc(S(=O)(=O)O)cc12` [Compound 65528]: under setting [3], the “F Ratio” value amounted to 0.1609 and the “Is Hit” value is given as “Yes”. The inhibition at 0.02 µM under setting [2] worked out at 71.6%.
In the same order, the values of `CN(C)C1C(O)=C(C(N)=O)C(=O)C2(O)C(O)=C3C(=O)c4c(O)cccc4C(C)(O)C3CC12.CS(=O)(=O)O` (stereo not shown) [Compound 69343] are 0.3746, “Yes” and 93.4%.
For the compound `Cc1cc2c(c3oc(C4OC4C4OC4C)cc(=O)c13)C(=O)c1c(O)c(C3CC(C)(N(C)C)C(O)C(C)O3)cc(C3CC(N(C)C)C(O)C(C)O3)c1C2=O` (stereo not shown) [Compound 70929], under setting [1], the “F Ratio” value amounted to 0.1099 and the “Is Hit” value is “Yes”. In addition, the inhibition at 0.02 µM (read-out: Result Value (Result Type % Inhibition), BCL-b/TR3, Table 7, NCI Mechanistic library, Binding Assay, FP, Concentration 0.02 uM) was determined as 105%.
For `O=[N+]([O-])c1ccc2c(/N=N/c3c(O)ccc4ccccc34)c(O)cc(S(=O)(=O)O)c2c1` [Compound 73413], under setting [1], the “F Ratio” value was determined as 0.05947 and the “Is Hit” value is “Yes”. The inhibition at 0.02 µM under setting [2] worked out at 125%.
Take `O=[N+]([O-])c1cccc2c(/N=N/c3ccc4ccccc4c3O)c(O)cc(S(=O)(=O)O)c12` [Compound 85561]: under setting [1], the “F Ratio” value is listed as 0.06489 and the “Is Hit” value is “Yes”. For the same compound, the inhibition at 0.02 µM under setting [2] was determined as 141%.
Take `C[n+]1c(/C=C/c2ccc(O)c3ncccc23)[se]c2ccccc21` [Compound 86374]: under setting [3], the “F Ratio” value was 0.09444 and the “Is Hit” value is “Yes”. For the same compound, the inhibition at 0.02 µM under setting [4] is 61.4%.
As to `O=S(=O)(O)c1ccc2cc(/N=N/c3cc(S(=O)(=O)O)c4cccnc4c3O)ccc2c1` [Compound 87677], under setting [3], the “F Ratio” value turned out to be 0.3822 and the “Is Hit” value was “Yes”. Under setting [2], the inhibition at 0.02 µM was 66.1%.
With `C[C@]12CC[C@H]3[C@@H](CCC4=CC(=O)CC[C@@]43C)[C@@H]1CC[C@@H]2C(=O)COS(=O)(=O)c1ccc(Br)cc1` [Compound 88915], under setting [3], the “F Ratio” value turned out to be 0.2647 and the “Is Hit” value was “Yes”. Moreover, the inhibition at 0.02 µM under setting [2] was 61.4%.
`Cc1cc(C(=C2C=CC(=N)C=C2)c2ccc(N)cc2)ccc1N` [Compound 93739]: the inhibition at 0.02 µM under setting [2] turned out to be 78.6%.
Take `Oc1ccc(Cc2nccc3cc(O)c(O)cc23)cc1O` [Compound 99799]: under setting [3], the “F Ratio” value is given as 0.09369 and the “Is Hit” value is given as “Yes”. The inhibition at 0.02 µM under setting [2] worked out at 77.4%.
As for `O=C1OC(c2ccccc2)=N/C1=C\c1ccc(N(CCCl)CCCl)cc1` [Compound 104117], under setting [1], the “F Ratio” value is 1.2733 and the “Is Hit” value was “Yes”. Also, the inhibition at 0.02 µM under setting [2] was determined as 62.8%.
The corresponding values for `COC(=O)c1ccc(O)c2nc3c(C=O)c(O)cc(O)c3nc12` [Compound 106995] are 0.08027, “Yes” and 98.9%.
Take `COc1cc(-c2[o+]c3cc(O)cc(O)c3cc2O)cc(O)c1O.O=C(O)c1ccccc1` [Compound 114885]: under setting [3], the “F Ratio” value is listed as 0.08249 and the “Is Hit” value is recorded as “Yes”. Also, the inhibition at 0.02 µM under setting [4] worked out at 108%.
On to `Nc1c(S(=O)(=O)O)cc(Nc2cccc(S(N)(=O)=O)c2)c2c1C(=O)c1ccccc1C2=O` [Compound 117079], for which, under setting [3], the “F Ratio” value is 0.4053 and the “Is Hit” value is “Yes”. Besides, the inhibition at 0.02 µM under setting [2] is 163%.
In the same order, the values of `Nc1nc(N)c(/N=N/c2ccc(C(=O)O)c(O)c2)c(N)n1` [Compound 117285] are 0.2954, “Yes” and 59.9%.
The corresponding values for `CN(C)S(=O)(=O)c1ccc(Nc2ccc(O)c3c2C(=O)c2c([N+](=O)[O-])ccc(O)c2C3=O)cc1` [Compound 117949] are 0.9351, “Yes” and 50.3%.

These data come from patent publication US20090118135A1, “METHODS AND COMPOUNDS FOR REGULATING APOPTOSIS” (The Burnham Institute, priority 2007, published 2009).
